Tests used:
[1] = biological target: recombinant Dictyostelium miozin (Dictyostelium) (Dictyostelium discoideum, UniProt P08799); test: actomyosin steady state ATPase measurement, Dictyostelium myosin; format: biochemical; conditions: for IC50: concentration required for semi-maximal inhibition of ATPase, read-out: IC50 (μM) Dicty; for % inhibition. complete Dicty: maximum value of inhibition of ATPase activity; for inhibition at 5 µM: read-out: % inhibition at 5 μM (or 10 μM if racemate) Dicty; for inhibition at 50 µM: read-out: % inhibition at 50 μM (or 100 μM if racemate) Dicty
Description: (§1) […]; (ii) the concentration required for semi-maximal inhibition.

[2] = test system: isolated rabbit skeletal muscle myosin (skeletal); test: actomyosin steady state ATPase measurement, skeletal muscle myosin; format: biochemical; conditions: for % inhibition at 5 μM (or 10 μM if racemate) Skeletal: 5 μM (10 μM if racemate); for % inhibition at 5 μM (or 10 μM if racemate) Skeletal / % inhibition at 50 μM (or 100 μM if racemate) Skeletal: ATPase activity; for % inhibition at 50 μM (or 100 μM if racemate) Skeletal: 50 μM (100 μM if racemate); for IC50: concentration required for semi-maximal inhibition of ATPase; for % inhibition. complete Skeletal: maximum value of inhibition of ATPase activity; for Inhibition (%) skeletal: maximum inhibition, compounds in IC50 range 1-2 μM
Description: as §1

[3] = biological target: recombinant human non-muscle myosin 2 NM2C (Homo sapiens, UniProt Q7Z406); test: actomyosin steady state ATPase measurement, NM2C; format: biochemical; conditions: for IC50: concentration required for semi-maximal inhibition of ATPase; for % inhibition. complete NM2C: maximum value of inhibition of ATPase activity; for inhibition at 5 µM: read-out: % inhibition at 5 μM (or 10 μM if racemate) NM2C, 5 μM (10 μM if racemate); for inhibition at 5 µM / inhibition at 50 µM: ATPase activity; for inhibition at 50 µM: read-out: % inhibition at 50 μM (or 100 μM if racemate) NM2C, 50 μM (100 μM if racemate)
Description: as §1

[4] = biological target: isolated smooth muscle myosin (UniProt P10587); format: biochemical, chamois; conditions: concentration required for semi-maximal inhibition of ATPase
Description: (ii) the concentration required for semi-maximal inhibition.

[5] = biological target: T1, isolated porcine cardiac ventricular myocardium (cardiac) (Sus scrofa, UniProt P79293); test: actomyosin steady state ATPase measurement, cardiac myosin; format: biochemical; conditions: for IC50: concentration required for semi-maximal inhibition of ATPase; for % inhibition. complete cardiac: maximum value of inhibition of ATPase activity; for inhibition at 5 µM: read-out: % inhibition at 5 μM (or 10 μM if racemate) cardiac, 5 μM (10 μM if racemate); for inhibition at 5 µM / inhibition at 50 µM: ATPase activity; for inhibition at 50 µM: read-out: % inhibition at 50 μM (or 100 μM if racemate) cardiac, 50 μM (100 μM if racemate)
T1 construct: isolated porcine cardiac ventricular myocardium (cardiac); from tissue; host or cells: porcine cardiac ventricle
Description: as §1

[6] = biological target: isolated smooth muscle myosin (UniProt P10587); format: biochemical, chamois; conditions: for % inhibition at 5 μM (or 10 μM if racemate) Smooth: 5 μM (10 μM if racemate); for % inhibition at 5 μM (or 10 μM if racemate) Smooth / % inhibition at 50 μM (or 100 μM if racemate) Smooth: ATPase activity; for % inhibition at 50 μM (or 100 μM if racemate) Smooth: 50 μM (100 μM if racemate); for % inhibition. complete Smooth: maximum value of inhibition of ATPase activity
[7] = maximum inhibition, compounds in IC50 range 1-5 μM

T1 sequence (P79293 whole entry): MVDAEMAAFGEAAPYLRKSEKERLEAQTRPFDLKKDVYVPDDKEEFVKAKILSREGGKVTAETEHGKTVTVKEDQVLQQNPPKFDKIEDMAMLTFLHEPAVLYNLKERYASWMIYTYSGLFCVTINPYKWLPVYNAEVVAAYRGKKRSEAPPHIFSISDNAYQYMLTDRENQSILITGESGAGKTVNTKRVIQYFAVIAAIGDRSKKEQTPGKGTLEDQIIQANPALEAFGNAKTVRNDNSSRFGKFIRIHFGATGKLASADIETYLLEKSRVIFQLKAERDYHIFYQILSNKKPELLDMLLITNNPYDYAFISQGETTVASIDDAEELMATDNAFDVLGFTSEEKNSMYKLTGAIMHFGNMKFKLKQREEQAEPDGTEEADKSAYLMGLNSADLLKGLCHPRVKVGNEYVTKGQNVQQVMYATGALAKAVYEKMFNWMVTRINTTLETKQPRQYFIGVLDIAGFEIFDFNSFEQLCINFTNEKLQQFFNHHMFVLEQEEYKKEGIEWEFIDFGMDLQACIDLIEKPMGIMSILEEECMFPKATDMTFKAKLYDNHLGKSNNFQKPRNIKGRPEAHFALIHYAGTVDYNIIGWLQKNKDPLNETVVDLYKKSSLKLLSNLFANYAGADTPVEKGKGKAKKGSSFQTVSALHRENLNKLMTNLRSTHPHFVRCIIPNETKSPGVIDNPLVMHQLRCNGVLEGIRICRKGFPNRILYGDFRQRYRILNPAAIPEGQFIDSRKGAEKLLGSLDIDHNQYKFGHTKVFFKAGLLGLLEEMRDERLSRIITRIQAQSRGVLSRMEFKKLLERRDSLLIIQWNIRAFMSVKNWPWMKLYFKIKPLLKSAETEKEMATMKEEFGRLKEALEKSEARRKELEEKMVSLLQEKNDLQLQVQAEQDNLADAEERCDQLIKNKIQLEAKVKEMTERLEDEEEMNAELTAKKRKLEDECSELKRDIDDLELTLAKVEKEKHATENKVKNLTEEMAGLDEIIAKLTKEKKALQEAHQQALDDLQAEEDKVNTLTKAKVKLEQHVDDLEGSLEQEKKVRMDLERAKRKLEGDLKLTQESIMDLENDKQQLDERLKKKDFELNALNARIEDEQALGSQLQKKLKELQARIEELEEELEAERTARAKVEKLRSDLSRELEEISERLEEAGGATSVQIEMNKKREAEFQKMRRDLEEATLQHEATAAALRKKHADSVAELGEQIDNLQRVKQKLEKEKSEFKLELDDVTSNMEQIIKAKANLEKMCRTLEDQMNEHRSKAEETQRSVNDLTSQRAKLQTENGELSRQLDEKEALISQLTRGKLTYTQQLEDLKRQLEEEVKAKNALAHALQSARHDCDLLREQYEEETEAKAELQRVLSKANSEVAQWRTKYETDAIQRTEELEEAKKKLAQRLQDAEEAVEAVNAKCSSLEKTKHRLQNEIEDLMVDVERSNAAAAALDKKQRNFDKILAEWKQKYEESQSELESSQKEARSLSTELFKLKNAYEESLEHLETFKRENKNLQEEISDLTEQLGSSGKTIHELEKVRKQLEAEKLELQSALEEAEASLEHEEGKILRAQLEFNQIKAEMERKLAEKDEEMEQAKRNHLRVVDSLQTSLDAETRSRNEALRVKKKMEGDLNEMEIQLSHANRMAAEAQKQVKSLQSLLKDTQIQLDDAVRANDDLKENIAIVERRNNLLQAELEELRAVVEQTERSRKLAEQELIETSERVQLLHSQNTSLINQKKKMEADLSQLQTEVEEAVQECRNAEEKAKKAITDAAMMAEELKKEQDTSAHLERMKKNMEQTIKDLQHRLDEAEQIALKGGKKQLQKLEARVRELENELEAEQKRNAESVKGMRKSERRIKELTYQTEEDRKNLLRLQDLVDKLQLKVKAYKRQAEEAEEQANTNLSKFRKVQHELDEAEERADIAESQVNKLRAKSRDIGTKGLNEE
Sequence of recombinant human non-muscle myosin 2 NM2C (Q7Z406 whole entry): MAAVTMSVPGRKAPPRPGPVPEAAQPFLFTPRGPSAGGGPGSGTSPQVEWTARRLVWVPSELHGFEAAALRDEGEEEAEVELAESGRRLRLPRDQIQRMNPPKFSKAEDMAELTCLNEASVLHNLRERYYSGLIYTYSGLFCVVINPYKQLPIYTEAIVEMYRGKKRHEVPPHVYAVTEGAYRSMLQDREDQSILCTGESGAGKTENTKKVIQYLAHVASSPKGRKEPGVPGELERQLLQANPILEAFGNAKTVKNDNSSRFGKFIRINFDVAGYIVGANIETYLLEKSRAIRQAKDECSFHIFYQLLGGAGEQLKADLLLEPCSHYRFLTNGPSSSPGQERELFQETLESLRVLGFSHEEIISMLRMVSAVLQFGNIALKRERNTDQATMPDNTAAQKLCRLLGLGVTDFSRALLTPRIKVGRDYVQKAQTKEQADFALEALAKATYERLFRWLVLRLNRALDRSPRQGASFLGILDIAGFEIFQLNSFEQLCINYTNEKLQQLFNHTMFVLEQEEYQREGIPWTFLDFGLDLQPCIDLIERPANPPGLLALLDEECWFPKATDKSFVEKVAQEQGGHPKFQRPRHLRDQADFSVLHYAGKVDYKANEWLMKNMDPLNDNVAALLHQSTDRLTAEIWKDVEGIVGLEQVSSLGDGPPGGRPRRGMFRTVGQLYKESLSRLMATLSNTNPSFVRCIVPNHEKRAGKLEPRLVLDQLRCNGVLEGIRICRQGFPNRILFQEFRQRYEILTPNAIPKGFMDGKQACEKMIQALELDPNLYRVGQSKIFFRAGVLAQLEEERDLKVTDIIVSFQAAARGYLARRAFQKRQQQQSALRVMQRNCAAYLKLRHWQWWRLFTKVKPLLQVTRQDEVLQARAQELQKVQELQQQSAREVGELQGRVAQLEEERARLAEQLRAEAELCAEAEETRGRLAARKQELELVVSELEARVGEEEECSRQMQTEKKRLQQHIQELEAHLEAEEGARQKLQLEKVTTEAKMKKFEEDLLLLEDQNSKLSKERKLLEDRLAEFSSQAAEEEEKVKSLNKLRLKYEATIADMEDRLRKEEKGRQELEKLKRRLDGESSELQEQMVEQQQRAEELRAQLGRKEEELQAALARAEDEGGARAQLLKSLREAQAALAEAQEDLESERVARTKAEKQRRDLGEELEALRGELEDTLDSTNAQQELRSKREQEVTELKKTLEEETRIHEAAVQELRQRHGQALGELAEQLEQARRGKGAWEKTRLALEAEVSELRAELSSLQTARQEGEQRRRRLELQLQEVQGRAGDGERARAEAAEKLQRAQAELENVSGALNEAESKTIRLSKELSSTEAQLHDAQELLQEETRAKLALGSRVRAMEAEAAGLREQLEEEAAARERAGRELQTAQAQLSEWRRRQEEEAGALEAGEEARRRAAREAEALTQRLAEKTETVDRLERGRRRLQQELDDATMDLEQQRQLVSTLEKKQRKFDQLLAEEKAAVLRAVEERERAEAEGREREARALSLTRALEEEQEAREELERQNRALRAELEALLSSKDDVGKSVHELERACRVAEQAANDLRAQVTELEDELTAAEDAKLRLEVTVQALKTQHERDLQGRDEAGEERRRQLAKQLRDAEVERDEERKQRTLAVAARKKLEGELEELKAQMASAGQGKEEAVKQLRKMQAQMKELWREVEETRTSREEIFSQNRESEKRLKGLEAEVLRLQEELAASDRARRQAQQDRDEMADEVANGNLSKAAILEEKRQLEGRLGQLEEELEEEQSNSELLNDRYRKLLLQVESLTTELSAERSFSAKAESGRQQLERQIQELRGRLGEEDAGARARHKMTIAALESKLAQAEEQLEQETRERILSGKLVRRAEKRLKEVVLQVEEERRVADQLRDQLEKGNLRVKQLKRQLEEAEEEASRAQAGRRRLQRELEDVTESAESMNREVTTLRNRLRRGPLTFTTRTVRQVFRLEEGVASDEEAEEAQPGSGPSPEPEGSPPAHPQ

| Structure (SMILES) | IC50 [1] [µM] | % inhibition. complete Dicty [1] [%] | inhibition at 5 µM [1] [%] | inhibition at 50 µM [1] [%] | % inhibition at 5 μM (or 10 μM if racemate) Skeletal [2] [%] | % inhibition at 50 μM (or 100 μM if racemate) Skeletal [2] [%] | IC50 [2] [µM] | % inhibition. complete Skeletal [2] [%] | IC50 [3] [µM] | % inhibition. complete NM2C [3] [%] | inhibition at 5 µM [3] [%] | inhibition at 50 µM [3] [%] | IC50 [4] [µM] | IC50 [5] [µM] | % inhibition. complete cardiac [5] [%] | inhibition at 5 µM [5] [%] | inhibition at 50 µM [5] [%] | % inhibition at 5 μM (or 10 μM if racemate) Smooth [6] [%] | % inhibition at 50 μM (or 100 μM if racemate) Smooth [6] [%] | % inhibition. complete Smooth [6] [%] | also measured |
| --- | --- | --- | --- | --- | --- | --- | --- | --- | --- | --- | --- | --- | --- | --- | --- | --- | --- | --- | --- | --- | --- |
| O=C1c2ccsc2N=C2N(c3ccc(OC(F)(F)F)cc3)CC[C@@]12O [Compound 212, (9S)-9-hydroxy-12-[4-(trifluoromethoxy)phenyl]-4-thia-2,12-diazatricyclo[7.3.0.0^3,7]dodeca-1,3(7),5-trien-8-one] | 10.9 | 84 | 26 | 69 | 94 | 97 | 0.19 | 98 | 6.4 | 61 | 19 | 56 | 10.4 | 5.9 | 100 | 43 | 93 | 24 | 61 | 74 | Inhibition (%) Dicty ([1]; maximum inhibition, compounds in IC50 range 1-11 μM): 84% |
| N#CCc1ccc(N2CC[C@@]3(O)C(=O)c4ccsc4N=C23)cc1 [Compound 215, (9S)-2-(4-{9-Hydroxy-8-oxo-4-thia-2,12-diazatricyclo[7.3.0.0^3,7]dodeca-1,3(7),5-trien-12-yl}phenyl)acetonitrile] | 12.1 | 78 | 23 | 63 | 80 | 96 | 1.1 | 98 | 19 | 77 | 16 | 56 | 2.3 | 5.6 | 94 | 42 | 84 | 31 | 45 | 47 | Inhibition (%) smooth [6, 7]: 47% |
| O=C1c2ccsc2N=C2N(c3ccc(CO)cc3)CC[C@@]12O [Compound 216, (9S)-9-Hydroxy-12-[4-(hydroxymethyl)phenyl]-4-thia-2,12-diazatricyclo[7.3.0.0^3,7]dodeca-1,3(7),5-trien-8-one] | 13.3 | 74 | 20 | 58 | 74 | 95 | 1.6 | 98 | 23 | 75 | 13 | 51 | 8.3 | 2.4 | 89 | 58 | 85 | 17 | 39 | 46 | Inhibition (%) skeletal [2]: 98% |
| O=C1c2ccsc2N=C2N(c3cccs3)CC[C@@]12O [Compound 218, (9S)-9-Hydroxy-12-(thiophen-2-yl)-4-thia-2,12-diazatricyclo[7.3.0.0^3,7]dodeca-1,3(7),5-trien-8-one] | 78 | 100 | 4 | 39 | 50 | 85 | 4.2 | 92 | 44 | 20 | 2 | 11 | 8.1 | 2.7 | 79 | 49 | 75 | 10 | 24 | 28 |  |
| COc1ccc(N2CC[C@@]3(O)C(=O)c4ccsc4N=C23)cn1 [Compound 219, (9S)-9-Hydroxy-12-(6-methoxypyridin-3-yl)-4-thia-2,12-diazatricyclo[7.3.0.0^3,7]dodeca-1,3(7),5-trien-8-one] | 43 | 100 | 6 | 56 | 69 | 91 | 1.8 | 94 | 8.1 | 21 | 8 | 18 | 6.9 | 4.1 | 84 | 44 | 78 | 15 | 32 | 36 | Inhibition (%) skeletal [2]: 94%; Inhibition (%) cardiac ([5]; maximum inhibition, compounds in IC50 range 3-6 μM): 84% |
| Cc1cc2c(s1)N=C1N(c3ccc(N)cc3)CCC1(O)C2=O (centres unmarked) [Compound 221, 12-(4-Aminophenyl)-9-hydroxy-5-methyl-4-thia-2,12-diazatricyclo[7.3.0.0^3,7]dodeca-1,3(7),5-trien-8-one] | 11.6 | 100 | 27 | 85 | 65 | 91 | 1.8 | 92 | 4.1 | 61 | 32 | 56 | 6 | 0.9 | 79 | 65 | 78 | 43 | 87 | 97 | Inhibition (%) skeletal [2]: 92%; Inhibition (%) NM2C [3, 7]: 61% |
| O=C1c2ccncc2N=C2NCCC12O (centres unmarked) [Compound 255, 3a-Hydroxy-1H,2H,3H,3aH,4H-pyrrolo[2,3-b]1,7-naphthyridin-4-one] | 42 | 33 | 4 | 18 | 6 | 7 | 1.7 | 7 |  |  |  |  | 1 | 1 |  | 7 | 7 | 3 | 3 | 3 | Inhibition (%) skeletal [2]: 7% |

Reference: patent US12421243B2, “Pharmaceutically effective compounds inhibiting selectively the myosin 2 isoforms” (PRINTNET KERESKEDELMI ÉS SZOLGÁLTATÓ KFT., priority 2018, dated 2025)
